Reference: EP4624465A1, “COMPOUND SERVING AS DDR1 KINASE INHIBITOR, AND MEDICINE” (Nippon Shinyaku Co., Ltd., priority 2022, dated 2024)
Structures can show the parent of a compound that is named as a salt.

Legend:
[1] = system: anti-glomerular basement membrane antibody-induced nephritis model; experiment: In vivo drug efficacy in an anti-glomerular basement membrane antibody-induced nephritis model (urinary albumin); settings: twice daily for 7 days, WKY/NCrlCrlj rats, antibody untreated group = 0%, medium-treated group = 100%
[2] = biological target: T1, DDR1 kinase (Homo sapiens, UniProt Q08345); experiment: Evaluation of DDR1 kinase inhibition in DDR1-expressing U2OS cells (type I collagen stimulation, PathHunter detection); assay type: cell-based; parameters: host or cells: U2OS; settings: type I collagen 50 µg/mL stimulation, duplicate, read-out: DDR-1 IC50
Target sequence in this assay (Q08345 19-913): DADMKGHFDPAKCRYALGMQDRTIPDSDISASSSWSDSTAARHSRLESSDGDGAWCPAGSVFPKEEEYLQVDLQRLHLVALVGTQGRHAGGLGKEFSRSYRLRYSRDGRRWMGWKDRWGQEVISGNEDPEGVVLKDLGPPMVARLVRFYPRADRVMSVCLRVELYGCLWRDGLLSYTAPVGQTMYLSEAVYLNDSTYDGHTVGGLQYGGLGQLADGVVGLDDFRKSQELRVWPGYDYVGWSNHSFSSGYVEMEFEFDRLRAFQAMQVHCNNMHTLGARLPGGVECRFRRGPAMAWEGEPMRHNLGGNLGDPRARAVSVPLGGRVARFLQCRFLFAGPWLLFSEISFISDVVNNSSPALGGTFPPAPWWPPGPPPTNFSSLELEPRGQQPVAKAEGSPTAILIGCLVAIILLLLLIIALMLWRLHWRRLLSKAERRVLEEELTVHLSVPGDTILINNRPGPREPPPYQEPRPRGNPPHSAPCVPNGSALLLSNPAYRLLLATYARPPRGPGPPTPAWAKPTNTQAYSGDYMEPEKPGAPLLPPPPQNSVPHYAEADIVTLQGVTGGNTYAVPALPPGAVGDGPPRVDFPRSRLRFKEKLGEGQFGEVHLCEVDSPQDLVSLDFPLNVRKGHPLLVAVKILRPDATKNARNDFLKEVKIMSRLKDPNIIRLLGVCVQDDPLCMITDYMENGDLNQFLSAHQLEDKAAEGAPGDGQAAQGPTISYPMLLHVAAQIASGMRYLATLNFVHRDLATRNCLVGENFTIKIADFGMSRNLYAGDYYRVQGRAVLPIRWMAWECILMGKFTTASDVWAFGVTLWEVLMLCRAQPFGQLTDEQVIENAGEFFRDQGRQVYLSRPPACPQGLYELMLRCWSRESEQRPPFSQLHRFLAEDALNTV

[3] = biological target: T1, DDR1 kinase; experiment: Evaluation of DDR1 kinase inhibition (LANCE Ultra TR-FRET kinase assay); assay type: biochemical; parameters: purchased Carna Biosciences 08-113; settings: DDR1 protein 0.5 nM, LANCE Ultra ULight-poly GAT substrate, 2 hours at room temperature, duplicate; read-out: DDR-1 IC50
Target sequence in this assay (Q08345 19-876 isoform Q08345-2 limits assumed): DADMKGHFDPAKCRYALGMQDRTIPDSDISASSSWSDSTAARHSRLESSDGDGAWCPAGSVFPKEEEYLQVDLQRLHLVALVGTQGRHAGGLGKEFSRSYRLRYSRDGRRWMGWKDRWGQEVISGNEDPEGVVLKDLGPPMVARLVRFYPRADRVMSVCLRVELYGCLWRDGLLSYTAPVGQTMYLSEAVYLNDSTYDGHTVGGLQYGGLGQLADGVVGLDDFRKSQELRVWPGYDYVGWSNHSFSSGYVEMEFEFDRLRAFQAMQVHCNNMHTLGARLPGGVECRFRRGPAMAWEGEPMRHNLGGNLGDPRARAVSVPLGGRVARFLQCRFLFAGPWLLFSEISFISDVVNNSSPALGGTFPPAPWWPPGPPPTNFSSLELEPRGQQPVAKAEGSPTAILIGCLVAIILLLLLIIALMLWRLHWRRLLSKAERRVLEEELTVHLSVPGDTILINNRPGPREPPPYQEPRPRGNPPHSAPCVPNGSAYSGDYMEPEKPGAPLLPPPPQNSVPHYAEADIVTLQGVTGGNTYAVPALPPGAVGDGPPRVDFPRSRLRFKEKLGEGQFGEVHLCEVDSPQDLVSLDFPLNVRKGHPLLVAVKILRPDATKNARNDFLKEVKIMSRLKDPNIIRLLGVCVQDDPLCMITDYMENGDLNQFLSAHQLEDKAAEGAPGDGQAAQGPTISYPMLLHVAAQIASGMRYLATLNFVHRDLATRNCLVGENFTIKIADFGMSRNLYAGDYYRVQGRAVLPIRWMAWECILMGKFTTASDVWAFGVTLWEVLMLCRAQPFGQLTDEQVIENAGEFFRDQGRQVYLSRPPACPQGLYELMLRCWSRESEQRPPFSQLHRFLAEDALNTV

SMILES | Amount (%) of albumin in urine compared with medium-treated group ([1]; Dose 100 mg/kg) [%] | IC50 [2] [nM] | IC50 [3] [nM] | Amount (%) of albumin in urine compared with medium-treated group ([1]; Dose 200 mg/kg) [%]
Nc1cc(C(=O)N2CC(c3nn(CC(=O)N4CCC[C@H]4C(F)(F)F)c4ccccc34)C2)c(F)cn1 [Compound E-3, 2-{3-[1-(2-amino-5-fluoropyridine-4-carbonyl)azetidin-3-yl]-1H-indazol-1-yl}-1-[(2S)-2-(trifluoromethyl)pyrrolidin-1-yl]ethan-1-one] | 67 | 53 | 0.4 | 
Cl.Nc1cc(C(=O)N2CC(c3nn(CC(=O)N4CCC[C@H]4C(F)(F)F)c4cc(F)cc(F)c34)C2)ccn1 [Compound E-2, 2-{3-[1-(2-aminopyridine-4-carbonyl)azetidin-3-yl]-4,6-difluoro-1H-indazol-1-yl}-1-[(2S)-2-(trifluoromethyl)pyrrolidin-1-yl]ethan-1-one hydrochloride] |  | 37 | 1.6 | 73
Nc1cc(C(=O)N2CC(c3nn(CC(=O)N4CCC[C@@H]4C(F)(F)F)c4cc(F)cc(F)c34)C2)ccn1 [Compound E-50, 2-{3-[1-(2-aminopyridine-4-carbonyl)azetidin-3-yl]-4,6-difluoro-1H-indazol-1-yl]-1-[(2R)-2-(trifluoromethyl)pyrrolidin-1-yl]ethan-1-one] |  | 1900 | 28 | 
Cc1c(C(=O)N2CC(c3nn(CC(=O)N4CCO[C@@H](C(F)(F)F)C4)c4ccccc34)C2)ccnc1N [Compound E-8, 2-{3-[1-(2-amino-3-methylpyridine-4-carbonyl)azetidin-3-yl]-1H-indazol-1-yl}-1-[(2R)-2-(trifluoromethyl)morpholin-4-yl]ethan-1-one] |  | 230 | 5.2 | 
N#C[C@@H]1CCCN1C(=O)Cn1nc(C2CN(C(=O)c3cc(N)ncc3F)C2)c2ccccc21 [Compound E-236] |  | 120 | 4.8 | 
Nc1cc(C(=O)N2CC(c3nn(CC(=O)N4CCC[C@H]4C(F)(F)F)c4ccncc34)C2)ccn1 [Compound E-13, 2-{3-[1-(2-aminopyridine-4-carbonyl)azetidin-3-yl]-1H-pyrazolo[4,3-c]pyridin-1-yl]-1-[(2S)-2-(trifluoromethyl)pyrrolidin-1-yl]ethan-1-one hydrochloride] |  | 1200 | 47 | 
Nc1cc(C(=O)N2CC(c3nn(CC(=O)N4CCC[C@H]4C(F)(F)F)c4cccc(F)c34)C2)ccn1 [Compound E-96, 2-{3-[1-(2-aminopyridine-4-carbonyl)azetidin-3-yl]-4-fluoro-1H-indazol-1-yl}-1-[(2S)-2-(trifluoromethyl)pyrrolidin-1-yl]ethan-1-one] |  | 84 | 0.9 | 
Cc1c(C(=O)N2CC(c3nn(CC(=O)N4CCO[C@@H](C(F)(F)F)C4)c4cc(F)cc(F)c34)C2)ccnc1N [Compound E-51, 2-{3-[1-(2-amino-3-methylpyridine-4-carbonyl)azetidin-3-yl]-4,6-difluoro-1H-indazol-1-yl}-1-[(2R)-2-(trifluoromethyl)morpholin-4-yl]ethan-1-one hydrochloride] |  | 400 | 12 | 
Nc1cc(C(=O)N2CCC(c3nn(CC(=O)N4CCC[C@H]4C(F)(F)F)c4cccc(F)c34)CC2)ccn1 [Compound E-81, 2-{3-[1-(2-aminopyridine-4-carbonyl)piperidin-4-yl]-4-fluoro-1H-indazol-1-yl}-1-[(28)-2-(trifluoromethyl)pyrrolidin-1-yl]ethan-1-one] |  | 61 | 1.5 | 
Nc1cc(C(=O)N2CC(c3nn(Cc4nc(C(F)(F)F)no4)c4cccc(F)c34)C2)ccn1 [Compound E-115, 4-[3-(4-fluoro-1-{[3-(trifluoromethyn-1,2,4-oxadiazol-5-yl]methyl}-1H-indazol-3-yl)azetidine-1-carbonyl]pyridin-2-amine hydrochloride] |  | 250 | 8.6 | 
Nc1cc(C(=O)N2CCC(c3nn(CC(=O)N4CCO[C@@H](C(F)(F)F)C4)c4cccc(F)c34)CC2)ccn1 [Compound E-91, 2-{3-[1-(2-aminopyridine-4-carbonyl)piperidin-4-yl]-4-fluoro-1H-indazol-1-yl]-1-[(2R)-2-(trifluoromethyl)morpholin-4-yl]ethan-1-one] |  | 610 | 11 | 
Cc1c(C(=O)N2CC(c3nn(CC(=O)N4CCO[C@@H](C(F)(F)F)C4)c4cncc(F)c34)C2)ccnc1N [Compound E-180, 2-{3-[1-(2-amino-3-methylpyridine-4-carbonyl)azetidin-3-yl]-4-fluoro-1H-pyrazolo{3,4-c)pyridin-1-yl}-1-[(2R)-2-(trifluoromethyl)morpholin-4-yl}ethan-1-one] |  | 3000 | 22 | 
Nc1cc(C(=O)N2CC(c3nn(Cc4nc(-c5ccc(F)cc5)no4)c4cccc(F)c34)C2)ccn1 [Compound E-104, 4-[3-(4-fluoro-1-{[3-(4-fluorophenyl)-1,2,4-oxadiazol-5-yl]methyl}-1H-indazol-3-yl)azetidine,1-carbonyl)pyridin-2-amine] |  | 110 | 5.2 | 
Nc1cc(C(=O)N2CC(c3nn(Cc4nc(-c5cccc(C(F)(F)F)c5)no4)c4cccc(F)c34)C2)ccn1 [Compound E-55, 4-{3-[4-fluoro-1-({3-[3-(trifluoromethyl)phenyl]-1,2,4-oxadiazol-5-yl}methyl)-1H-indazol-3-yl]azetidine-1-carbonyl}pyridin-2-amine] |  | 150 | 23 | 
